# Results as given in publication PMC10063609, “Discovery of novel cardiac troponin activators using fluorescence polarization-based high throughput screening assays” (Scientific Reports, 2023).
# Where “and” joins values, the source holds several entries; their conditions need not be identical. Equal values may be shown once. Where a name gives a salt, the structure may show the parent alone. *1 amine or outer side, *2 acyl side, *3 side chain or, on linkers, in order; H or OH if unused. Where a SMILES comes first, the peptide text is derived from it. Bridges are numbered along the chain shown (N, C = ends). [ ]: non-standard residue; d: D form. The star is where a group is joined. hTyr(3S-OH,4S-OH,3'-OSO3H) = N[C@H](C(=O)O)[C@H](O)[C@@H](O)c1ccc(O)c(OS(=O)(=O)O)c1; Orn(4R-OH,5R-OH) = O=C([C@H](C[C@@H](O)[C@@H](O)N[*:3])N[*:1])[*:2]; Pro(3S-OH,4S-Me) = C[C@H]1CN[C@H](C(=O)O)[C@H]1O; X1 = CCCCCOc1ccc(-c2cc(-c3ccc(C(=O)*)cc3)no2)cc1; Gln(3R-OH) = NC(=O)C[C@@H](O)[C@H](N)C(=O)O; Hyp = O=C(O)[C@@H]1C[C@@H](O)CN1
# Target: interaction between cTnC and switch peptide of cTnI (cTnISP) (Homo sapiens, UniProt P63316)
# Assay: Fluorescence polarization HTS and dose-response, cTnC/FAM-cTnISP
# Type: binding
# Details: not given
row,Compound,FP (mP)
1,O=[N+]([O-])c1ccc(CNc2nc(NCc3cccc(C(F)(F)F)c3)nc3nc[nH]c23)cc1 [TNP],90.9 mP

# Same assay, conditions: cTnISP primary screen, ENZO Screenwell library, single concentration 50 μmol/L
row,FP (mP),Compound
1,76.1 mP,OCCN1CCN(CCCN2c3ccccc3Sc3ccc(C(F)(F)F)cc32)CC1 [Fluphenazine.HCl]
2,83.7 mP,COc1cc2ncnc(Nc3ccc(F)c(Cl)c3)c2cc1OCCCN1CCOCC1 [Gefitinib]
3,119.8 mP,N[C@@H](Cc1cc(I)c(Oc2cc(I)c(O)c(I)c2)c(I)c1)C(=O)[O-].[Na+] [Levothyroxine·Na]
4,73.2 mP,OCCN1CCN(CCCN2c3ccccc3Sc3ccc(Cl)cc32)CC1 [Perphenazine]
5,76.9 mP,O=C(c1ccc(OCCN2CCCCC2)cc1)c1c(-c2ccc(O)cc2)sc2cc(O)ccc12 [Raloxifene.HCl]
6,88.4 mP,COC(=O)[C@H]1[C@H]2C[C@@H]3c4[nH]c5cc(OC)ccc5c4CCN3C[C@H]2C[C@@H](OC(=O)c2cc(OC)c(OC)c(OC)c2)[C@@H]1OC [Reserpine]
7,88.2 mP,Clc1ccc(C(Cn2ccnc2)OCc2csc3c(Cl)cccc23)c(Cl)c1 (stereo not shown) [Sertaconazole]
8,69.1 mP,CC/C(=C(\c1ccccc1)c1ccc(OCCN(C)C)cc1)c1ccccc1 [Tamoxifen Citrate]

row,Compound,FP (mP)
1,"CCCCCOc1ccc(-c2cc(-c3ccc(C(=O)N[C@H]4C[C@@H](O)[C@@H](O)NC(=O)[C@@H]5[C@@H](O)[C@@H](C)CN5C(=O)[C@H]([C@H](O)CC(N)=O)NC(=O)[C@H]([C@H](O)[C@@H](O)c5ccc(O)c(OS(=O)(=O)O)c5)NC(=O)[C@@H]5C[C@@H](O)CN5C(=O)[C@H]([C@@H](C)O)NC4=O)cc3)no2)cc1 [Micafungin] (X1-[Orn(4R-OH,5R-OH)]T[Hyp][hTyr(3S-OH,4S-OH,3'-OSO3H)][Gln(3R-OH)][Pro(3S-OH,4S-Me)]; lactam 1-C)",128.6 mP

# Same assay, conditions: cTnISP primary screen, LOPAC 1280 library, single concentration 50 μmol/L
row,FP (mP),Compound
1,87.3 mP,OCCN1CCN(CCCN2c3ccccc3Sc3ccc(C(F)(F)F)cc32)CC1 [Fluphenazine dihydrochloride]
2,88.6 mP,O=C1NCN(c2ccccc2)C12CCN(CCCC(c1ccc(F)cc1)c1ccc(F)cc1)CC2 [Fluspirilene]
3,87 mP,Cc1nc(Nc2cnn(C3CCNCC3)c2)nc2c1N(C)C(=O)c1cc3ccccc3cc1N2C [HTH 01-015]
4,84.3 mP,O=C(c1ccc(Nc2nccc(-c3cc4ccccc4s3)n2)cc1)N1CCC(N2CCCC2)CC1 [IKK-16 dihydrochloride]
5,86.8 mP,O=C(O)C(O)C(O)C(=O)O.Oc1ccc2c(c1)CC[C@H](c1ccccc1)[C@@H]2c1ccc(OCCN2CCCC2)cc1 [Lasofoxifene tartrate]
6,86.5 mP,CSc1ccc2c(c1)C(N1CCN(C)CC1)Cc1ccccc1S2 (stereo not shown) [Methiothepin mesylate]
7,88.7 mP,CC(C)[C@H]1c2ccc(F)cc2CC[C@@]1(CCN(C)CCCc1nc2ccccc2[nH]1)OC(=O)C1CC1 [NNC 55-0396]
8,86.2 mP,CN1CCN(CCCN2c3ccccc3Sc3ccc(Cl)cc32)CC1 [Prochlorperazine dimaleate]
9,85.6 mP,NCCOc1cc(C(=O)Nc2cc(OCCN)c3ccccc3n2)nc(C(=O)Nc2cc(OCCN)c3ccccc3n2)c1 [Pyridostatin trifluoroacetate salt]
10,85.5 mP,O=C(c1ccc(OCCN2CCCCC2)cc1)c1c(-c2ccc(O)cc2)sc2cc(O)ccc12 [Raloxifene.HCl]
11,78.4 mP,[H]/N=C(/NCCCCC)N/N=C/c1c[nH]c2ccc(OC)cc12 [Tegaserod maleate]

row,Compound,FP (mP)
1,Cc1c2ccncc2c(C)c2c1[nH]c1ccccc12 [Ellipticine],86.1 mP
2,CCN(CC)CCOc1ccc(/C(=C(/Cl)c2ccccc2)c2ccccc2)cc1.Cl [Enclomiphene hydrochloride],78.4 mP

# Same assay, conditions: cTnISP primary screen, TOCRIScreen library, single concentration 50 μmol/L
row,FP (mP),Compound
1,87.7 mP,c1ccc(Cn2c(-c3ccc(OC[C@H](C4CCNCC4)n4c(-c5ccccc5)nc5ccccc54)cc3)nc3ccccc32)cc1 [Deltarasin]
2,64.1 mP,CCCCCCCCNC(=O)/C(C#N)=C/c1cn(CCCN(C)C)c2ccccc12 [Dynole 34-2]
3,64.9 mP,CCOc1cc(C(=O)N2CCC(N3CCN(C)CC3)CC2)ccc1Nc1ncc2c(n1)N(C1CCCC1)c1ccccc1C(=O)N2C [ERK5-IN-1]
4,83.2 mP,CCn1c(=O)c(-c2ccc(Cl)cc2Cl)cc2cnc(Nc3ccc(N4CCNCC4)c(F)c3)nc21 [FRAX 486]
5,81.8 mP,COc1cc2ncnc(Nc3ccc(F)c(Cl)c3)c2cc1OCCCN1CCOCC1 [Gefitinib]
6,73.4 mP,CCOc1cc2ncc(C#N)c(Nc3ccc(OCc4cccc(F)c4)c(Cl)c3)c2cc1NC(=O)/C=C/CN(C)C [HKI 357]
7,87.1 mP,Cc1nc(Nc2cnn(C3CCNCC3)c2)nc2c1N(C)C(=O)c1cc3ccccc3cc1N2C [HTH 01-015]
8,82 mP,O=C(c1ccc(Nc2nccc(-c3cc4ccccc4s3)n2)cc1)N1CCC(N2CCCC2)CC1 [IKK 16]
9,84.3 mP,CCc1ccc(OCc2ccccc2C(=O)Nc2ccc3nc(C)cc(N)c3c2)cc1 [JTC 801]
10,84.6 mP,COc1cc(N2CCC(O)CC2)ccc1Nc1cc(Nc2ccccc2S(=O)(=O)C(C)C)c2cc[nH]c2n1.Cl.Cl [Mps1-IN-1 dihydrochloride]
11,87.5 mP,CC(C)(Cc1ccc2ccccc2c1)NC[C@@H](O)COc1cccc(Cl)c1C#N.Cl [NPS 2143 hydrochloride]
12,89.5 mP,CCN(CC)CCCC(C)Nc1nc(C)cc(Nc2ccc3nc(C)cc(N)c3c2)n1 (stereo not shown) [NSC 23766]
13,68.4 mP,Nc1ncnc2c1c(-c1cccc(OCc3ccccc3)c1)cn2C1CC(CN2CCCC2)C1 (stereo not shown) [NVP ADW 742]
14,78.7 mP,CCN(CC)CCOc1ccc(Nc2ncc3cc(-c4c(Cl)cccc4Cl)c(=O)n(C)c3n2)cc1.Cl.Cl [PD 166285 dihydrochloride]
15,64 mP,Cn1cc(-c2[nH]c3cc(NC(=O)[C@H](N)C4CCCCC4)cc4c3c2C=NNC4=O)cn1 [PF 477736]
16,76.4 mP,Cc1[nH]c(/C=C2\C(=O)Nc3ccc(S(=O)(=O)Cc4c(Cl)cccc4Cl)cc32)c(C)c1C(=O)N1CCC[C@@H]1CN1CCCC1 [PHA 665752]
17,80.2 mP,COc1ccc(Cl)cc1NC(=O)Nc1cc(C)nc2ccccc12 [PQ 401]
18,78.2 mP,CN1CCN(CCCN2c3ccccc3Sc3ccc(Cl)cc32)CC1 [Prochlorperazine dimaleate]
19,57.9 mP,CS(=O)(=O)O.Cn1cc(C2=C(c3cn(CCCSC(=N)N)c4ccccc34)C(=O)NC2=O)c2ccccc21 [Ro 31-8220 mesylate]
20,81.8 mP,COc1cc(C(=O)NC2CCN(C)CC2)ccc1Nc1ncc2c(n1)N(C1CCCC1)CC(F)(F)C(=O)N2C [Ro 3280]
21,70.3 mP,O=C(Nc1cc(C(F)(F)F)cc(C(F)(F)F)c1)c1cnc(Cl)nc1C(F)(F)F [SP 100030]
22,79 mP,COc1ccc(CCN(C)CCCOc2ccc(S(=O)(=O)c3c(C(C)C)c4ccccc4n3C)cc2)cc1OC.O=C(O)C(=O)O [SR 33805 oxalate]
23,88 mP,COc1cc(C(=O)NC2CCN(C)CC2)c(F)cc1Nc1ncc2c(n1)N(C1CCCC1)CC(F)(F)C(=O)N2C.Cl [TAK 960 hydrochloride]
24,73.5 mP,Cc1cccc(C)c1-n1c(=O)c2cnc(Nc3ccc(N4CCN(C)CC4)cc3)nc2n2c3ccccc3nc12 [TC-S 7003]
25,62.2 mP,CC/C(=C(\c1ccccc1)c1ccc(OCCN(C)C)cc1)c1ccccc1 [Tamoxifen Citrate]
26,65 mP,CS(=O)(=O)O.c1cc2c(cc1C1CCCCC1)c1c3n2CCNC3CCC1 (stereo not shown) [Tetrindole mesylate]

row,Compound,FP (mP)
1,CN(C(=O)CN1C(=O)COc2cc(Cl)c(Cl)cc21)[C@@H](CN1CCCC1)c1ccc(-c2cccc(C(N)=O)c2)cc1.Cl [GSK 1562590 hydrochloride],89.9 mP
2,Cc1[nH]c(/C=C2\C(=O)Nc3ccc(S(=O)(=O)N(C)c4cccc(Cl)c4)cc32)c(C)c1C(=O)N1CCN(C)CC1 [SU 11274],64.5 mP

# Same assay, conditions: cTnISP primary screen, TOCRIScreen library, single concentration 50 μmol/L; listed as Raloxifene hydrochloride
row,FP (mP),Compound
1,87.9 mP and 82.1 mP,O=C(c1ccc(OCCN2CCCCC2)cc1)c1c(-c2ccc(O)cc2)sc2cc(O)ccc12 [Raloxifene.HCl]
